Reference: patent US20030236407A1, “Perfluoroalkyl group-containing micelle-forming triiodoaromatic compounds, process for their production and their use as contrast media” (Schering AG, priority 2002, published 2003)

Experiment: Critical micelle formation concentration (CMC) by concentration-dependent determination of the surface tension
Type: physicochemical
Settings: aqueous solution; from concentration-dependent surface tension
Procedure: The CMC was determined by the concentration-dependent determination of the surface tension. The method is described by, i.a., Elworthy and Mysels; J. Colloid Interface Sci., 21, 331, 1966; Mukerjee, Mysels; The Critical Micelle Conc. Of Aqu. Surfactant Systems, 1971, US National Bureau of Standards and G. Brosowski, M. Rohr, G. Lehmann; Fette, […], Anstrichsmittel [Fats, Soaps, Paints], 75, 335, 1973.

| Compound | Critical Micelle Formation Concentration (CMC) |
| --- | --- |
| O=C(O)CN(C(=O)COCC(=O)N1CCN(S(=O)(=O)C(F)(F)C(F)(F)C(F)(F)C(F)(F)C(F)(F)C(F)(F)C(F)(F)C(F)(F)F)CC1)c1c(I)c(C(=O)N(CC(O)CO)CC(O)CO)c(I)c(C(=O)N(CC(O)CO)CC(O)CO)c1I (stereo not drawn) [Example 1 e, [{3,5-Bis-[bis-(2,3-dihydroxy-propyl)-carbamoyl]-2,4,6-triiodo-phenyl}-(2-{2-[4-(heptadecafluorooctane-1-sulfonyl)piperazin-1-yl]-2-oxo-ethoxy}-acetyl)-amino]-acetic Acid] | 6.4e-05 mol/L |
| O=C(COCC(=O)N1CCN(S(=O)(=O)C(F)(F)C(F)(F)C(F)(F)C(F)(F)C(F)(F)C(F)(F)C(F)(F)C(F)(F)F)CC1)Nc1c(I)c(C(=O)N(CC(O)CO)CC(O)CO)c(I)c(C(=O)N(CC(O)CO)CC(O)CO)c1I (stereo not drawn) [Example 2 c] | 6.2e-05 mol/L |
| O=C(O)CN(C(=O)CCC(=O)N1CCN(S(=O)(=O)C(F)(F)C(F)(F)C(F)(F)C(F)(F)C(F)(F)C(F)(F)C(F)(F)C(F)(F)F)CC1)c1c(I)c(C(=O)N(CC(O)CO)CC(O)CO)c(I)c(C(=O)N(CC(O)CO)CC(O)CO)c1I (stereo not drawn) [Example 3 e, [{3,5-Bis-[bis-(2,3-dihydroxy-propyl)-carbamoyl]-2,4,6-triiodo-phenyl}-{4[4-(heptadecafluorooctane-1-sulfonyl)-piperazin-1-yl]-4-oxo-butyryl}-amino)-acetic Acid] | 5.4e-05 mol/L |
| O=C(CCC(=O)N1CCN(S(=O)(=O)C(F)(F)C(F)(F)C(F)(F)C(F)(F)C(F)(F)C(F)(F)C(F)(F)C(F)(F)F)CC1)Nc1c(I)c(C(=O)N(CC(O)CO)CC(O)CO)c(I)c(C(=O)N(CC(O)CO)CC(O)CO)c1I (stereo not drawn) [Example 4 c, N,N,N′,N′-Tetrakis-(2,3-dihydroxy-propyl)-5-{4-[4-(heptadecafluorooctane-1-sulfonyl)-piperazin-1-yl]-4-oxo-butyrylamino}-2,4,6-triiodo-isophthalamide] | 5.4e-05 mol/L |
| CN(CC(O)C(O)C(O)C(O)CO)C(=O)c1c(I)c(NC(=O)COCC(=O)N2CCN(S(=O)(=O)C(F)(F)C(F)(F)C(F)(F)C(F)(F)C(F)(F)C(F)(F)C(F)(F)C(F)(F)F)CC2)c(I)c(C(=O)N(C)CC(O)C(O)C(O)C(O)CO)c1I (stereo not drawn) [Example 5 f, 2,4,6-Triiodo-N,N′-dimethyl-5-{2-[2-oxo-2-(4-(heptadecafluorooctane-1-sulfonyl)-piperazin-1-yl]-ethoxy]-acetylamino}-N,N′-bis-(2,3,4,5,6-pentahydroxyhexyl)-isophthalamide] | 0.00012 mol/L |
| CN(CC(O)C(O)C(O)C(O)CO)C(=O)c1c(I)c(C(=O)N(C)CC(O)C(O)C(O)C(O)CO)c(I)c(N(CC(=O)O)C(=O)COCC(=O)N2CCN(S(=O)(=O)C(F)(F)C(F)(F)C(F)(F)C(F)(F)C(F)(F)C(F)(F)C(F)(F)C(F)(F)F)CC2)c1I (stereo not drawn) [Example 6 e] | 6.9e-05 mol/L |
